Source: patent EP3211076A1, “NOVEL ALPHA-GLUCOSIDASE” (Showa Sangyo Co., Ltd., priority 2014, dated 2016)

Key:
[1] = tested on: α-Glucosidase Derived from NBRC4239 Strain; experiment: Substrate specificity of the enzyme; type: biochemical, Aspergillus sojae; conditions: 40°C, pH 6.0; for Relative Activity* (%): substrate 10mM, relative to decomposition rate of 10 mM maltose
Experimental: The substrate specificity of the present enzyme was evaluated at the conditions of 40°C and pH 6.0.

[2] = tested on: α-Glucosidase Derived from NBRC4239 Strain; experiment: Effect of metal ion on the enzyme activity; type: biochemical, Aspergillus sojae
Experimental: The hydrolytic activity using maltose as the substrate was measured as shown below. A 20 mM maltose (50µL) dissolved in the 20mM MES buffer (pH 6.0) and an enzyme solution diluted by the buffer are mixed and incubated at 40°C for 30 min., then, 1 µL of 10% oxalic acid solution was added and heated at 100°C for 10 min. to stop the reaction. The amount of liberated glucose in the reaction solution was measured by Glucose CII Test Wako (produced by Wako Pure Chemical Industries, Ltd.). One unit of α-glucosidase activity was defined as the amount of enzyme that catalyzes hydrolysis of 1 µmol of maltose per minute. The effect of various metal ions on the present enzyme was studied. The enzyme activity was analyzed according to <Analysis Method of α-Glucosidase Activity>.

`OC[C@H]1O[C@H](O[C@H]2[C@H](O)[C@@H](O)C(O)O[C@@H]2CO)[C@H](O)[C@@H](O)[C@@H]1O` (mixture of isomers) [maltose] was tested. Which “hydrolytic activity toward substrate (in words)” value [1] did it give?
Its value is “well hydrolytic activities”.

What about the “Relative Activity* (%)” value [1] of the same molecule?
The value was 100%.

What does the source list for `O=C(O)CN(CCN(CC(=O)O)CC(=O)O)CC(=O)O` [EDTA]?
Specific Activity (%) ([2]; Concentration 5 mM added to reaction mixture, no addition = 100): 85%; effect on the enzyme activity (in words) ([2]; addition of ions to the reaction mixture): inhibited the activity somewhat

Which results are given for `OC[C@H]1O[C@H](OC[C@H]2OC(O)[C@H](O)[C@@H](O)[C@@H]2O)[C@H](O)[C@@H](O)[C@@H]1O` (stereo partly drawn) [isomaltose]?
hydrolytic activity toward substrate (in words) [1]: well hydrolytic activities; Relative Activity* (%) [1]: 163%

How did the “Relative Activity* (%)” value [1] turn out when `OC[C@H]1O[C@H](OC[C@H]2O[C@H](OC[C@H]3O[C@H](OC[C@H]4OC(O)[C@H](O)[C@@H](O)[C@@H]4O)[C@H](O)[C@@H](O)[C@@H]3O)[C@H](O)[C@@H](O)[C@@H]2O)[C@H](O)[C@@H](O)[C@@H]1O` (stereo partly drawn) [isomaltotetraose] was run?
The value was 168%.

Which “Relative Activity* (%)” value [1] does the source give for `OC[C@H]1O[C@H](OC[C@H]2O[C@H](OC[C@H]3OC(O)[C@H](O)[C@@H](O)[C@@H]3O)[C@H](O)[C@@H](O)[C@@H]2O)[C@H](O)[C@@H](O)[C@@H]1O` (stereo partly drawn) [isomaltotriose] here?
The value was 161%.

How did the “Relative Activity* (%)” value [1] turn out when `OC[C@H]1O[C@H](O[C@H]2[C@H](O)[C@@H](O)[C@@H](O[C@H]3[C@H](O)[C@@H](O)[C@@H](O[C@H]4[C@H](O)[C@@H](O)[C@@H](O[C@H]5[C@H](O)[C@@H](O)[C@@H](O[C@H]6[C@H](O)[C@@H](O)[C@@H](O[C@H]7[C@H](O)[C@@H](O)C(O)O[C@@H]7CO)O[C@@H]6CO)O[C@@H]5CO)O[C@@H]4CO)O[C@@H]3CO)O[C@@H]2CO)[C@H](O)[C@@H](O)[C@@H]1O` (stereo partly drawn) [maltoheptaose] was run?
The value was 57%.

With `OC[C@H]1O[C@H](O[C@H]2[C@H](O)[C@@H](O)[C@@H](O[C@H]3[C@H](O)[C@@H](O)[C@@H](O[C@H]4[C@H](O)[C@@H](O)[C@@H](O[C@H]5[C@H](O)[C@@H](O)[C@@H](O[C@H]6[C@H](O)[C@@H](O)C(O)O[C@@H]6CO)O[C@@H]5CO)O[C@@H]4CO)O[C@@H]3CO)O[C@@H]2CO)[C@H](O)[C@@H](O)[C@@H]1O` (stereo partly drawn) [maltohexaose] as the molecule, how does the “Relative Activity* (%)” value [1] read?
Its value is 49%.

How did the “Relative Activity* (%)” value [1] turn out when `OC[C@H]1O[C@H](O[C@H]2[C@H](O)[C@@H](O)[C@@H](O[C@H]3[C@H](O)[C@@H](O)[C@@H](O[C@H]4[C@H](O)[C@@H](O)[C@@H](O[C@H]5[C@H](O)[C@@H](O)C(O)O[C@@H]5CO)O[C@@H]4CO)O[C@@H]3CO)O[C@@H]2CO)[C@H](O)[C@@H](O)[C@@H]1O` (stereo partly drawn) [maltopentaose] was run?
The value was 41%.

`OC[C@H]1O[C@H](O[C@H]2[C@H](O)[C@@H](O)[C@@H](O[C@H]3[C@H](O)[C@@H](O)[C@@H](O[C@H]4[C@H](O)[C@@H](O)C(O)O[C@@H]4CO)O[C@@H]3CO)O[C@@H]2CO)[C@H](O)[C@@H](O)[C@@H]1O` (stereo partly drawn) [maltotetraose] was tested. Which “hydrolytic activity toward substrate (in words)” value [1] did it give?
The value was “a little low”.

What about the “Relative Activity* (%)” value [1] of the same molecule?
Its value is 16%.

With `OC[C@H]1O[C@H](O[C@H]2[C@H](O)[C@@H](O)[C@@H](O[C@H]3[C@H](O)[C@@H](O)C(O)O[C@@H]3CO)O[C@@H]2CO)[C@H](O)[C@@H](O)[C@@H]1O` (stereo partly drawn) [maltotriose] as the molecule, how does the “Relative Activity* (%)” value [1] read?
Its value is 45%.

How did the “hydrolytic activity toward substrate (in words)” value [1] turn out when `OC[C@H]1O[C@H](O[C@H]2[C@H](O)[C@@H](CO)OC(O)[C@@H]2O)[C@H](O)[C@@H](O)[C@@H]1O` (stereo partly drawn) [nigerose] was run?
The value was “well hydrolytic activities”.

And the “Relative Activity* (%)” value [1]?
The value was 153%.

How did the “Relative Activity* (%)” value [1] turn out when `OC[C@H]1O[C@H](OC[C@H]2O[C@H](O[C@H]3[C@H](O)[C@@H](O)C(O)O[C@@H]3CO)[C@H](O)[C@@H](O)[C@@H]2O)[C@H](O)[C@@H](O)[C@@H]1O` (stereo partly drawn) [panose] was run?
The value was 153%.

Which results are given for `OC[C@H]1O[C@H](O[C@H]2O[C@H](CO)[C@@H](O)[C@H](O)[C@H]2O)[C@H](O)[C@@H](O)[C@@H]1O` [trehalose]?
hydrolytic activity toward substrate (in words) [1]: very slight; Relative Activity* (%) [1]: 1%

How did the “hydrolytic activity toward substrate (in words)” value [1] turn out when `OC[C@H]1O[C@@H]2O[C@H]3[C@H](O)[C@@H](O)[C@@H](O[C@H]4[C@H](O)[C@@H](O)[C@@H](O[C@H]5[C@H](O)[C@@H](O)[C@@H](O[C@H]6[C@H](O)[C@@H](O)[C@@H](O[C@H]7[C@H](O)[C@@H](O)[C@@H](O[C@H]1[C@H](O)[C@H]2O)O[C@@H]7CO)O[C@@H]6CO)O[C@@H]5CO)O[C@@H]4CO)O[C@@H]3CO` [α-cyclodextrine] was run?
The value was “well hydrolytic activities”.

And the “Relative Activity* (%)” value [1]?
The value was 58%.

For `OC[C@H]1O[C@@H]2O[C@H]3[C@H](O)[C@@H](O)[C@@H](O[C@H]4[C@H](O)[C@@H](O)[C@@H](O[C@H]5[C@H](O)[C@@H](O)[C@@H](O[C@H]6[C@H](O)[C@@H](O)[C@@H](O[C@H]7[C@H](O)[C@@H](O)[C@@H](O[C@H]8[C@H](O)[C@@H](O)[C@@H](O[C@H]1[C@H](O)[C@H]2O)O[C@@H]8CO)O[C@@H]7CO)O[C@@H]6CO)O[C@@H]5CO)O[C@@H]4CO)O[C@@H]3CO` [β-cyclodextrine], which “hydrolytic activity toward substrate (in words)” value [1] is on record?
The value was “well hydrolytic activities”.

What about the “Relative Activity* (%)” value [1] of the same molecule?
The value was 48%.

For `OC[C@H]1O[C@@H]2O[C@H]3[C@H](O)[C@@H](O)[C@@H](O[C@H]4[C@H](O)[C@@H](O)[C@@H](O[C@H]5[C@H](O)[C@@H](O)[C@@H](O[C@H]6[C@H](O)[C@@H](O)[C@@H](O[C@H]7[C@H](O)[C@@H](O)[C@@H](O[C@H]8[C@H](O)[C@@H](O)[C@@H](O[C@H]9[C@H](O)[C@@H](O)[C@@H](O[C@H]1[C@H](O)[C@H]2O)O[C@@H]9CO)O[C@@H]8CO)O[C@@H]7CO)O[C@@H]6CO)O[C@@H]5CO)O[C@@H]4CO)O[C@@H]3CO` [γ-cyclodextrine], which “hydrolytic activity toward substrate (in words)” value [1] is on record?
The value was “a little low”.

What about the “Relative Activity* (%)” value [1] of the same molecule?
The value was 14%.

Which results are given for kojibiose?
hydrolytic activity toward substrate (in words) [1]: well hydrolytic activities; Relative Activity* (%) [1]: 91%
